Legend:
[1] = target: T1, human progesterone receptor(PR) (Homo sapiens, UniProt P06401); experiment: Test of progesterone receptor antagonist activity (MMTV-luciferase transactivation in transfected HEK293T cells, with progesterone 1 nM); format: cell-based; conditions: 24 hours, progesterone 1 nM plus increasing amounts, Figure 2
T1 construct: expressed in transfected cells; host or cells: HEK293T
T1 sequence (P06401 1-933): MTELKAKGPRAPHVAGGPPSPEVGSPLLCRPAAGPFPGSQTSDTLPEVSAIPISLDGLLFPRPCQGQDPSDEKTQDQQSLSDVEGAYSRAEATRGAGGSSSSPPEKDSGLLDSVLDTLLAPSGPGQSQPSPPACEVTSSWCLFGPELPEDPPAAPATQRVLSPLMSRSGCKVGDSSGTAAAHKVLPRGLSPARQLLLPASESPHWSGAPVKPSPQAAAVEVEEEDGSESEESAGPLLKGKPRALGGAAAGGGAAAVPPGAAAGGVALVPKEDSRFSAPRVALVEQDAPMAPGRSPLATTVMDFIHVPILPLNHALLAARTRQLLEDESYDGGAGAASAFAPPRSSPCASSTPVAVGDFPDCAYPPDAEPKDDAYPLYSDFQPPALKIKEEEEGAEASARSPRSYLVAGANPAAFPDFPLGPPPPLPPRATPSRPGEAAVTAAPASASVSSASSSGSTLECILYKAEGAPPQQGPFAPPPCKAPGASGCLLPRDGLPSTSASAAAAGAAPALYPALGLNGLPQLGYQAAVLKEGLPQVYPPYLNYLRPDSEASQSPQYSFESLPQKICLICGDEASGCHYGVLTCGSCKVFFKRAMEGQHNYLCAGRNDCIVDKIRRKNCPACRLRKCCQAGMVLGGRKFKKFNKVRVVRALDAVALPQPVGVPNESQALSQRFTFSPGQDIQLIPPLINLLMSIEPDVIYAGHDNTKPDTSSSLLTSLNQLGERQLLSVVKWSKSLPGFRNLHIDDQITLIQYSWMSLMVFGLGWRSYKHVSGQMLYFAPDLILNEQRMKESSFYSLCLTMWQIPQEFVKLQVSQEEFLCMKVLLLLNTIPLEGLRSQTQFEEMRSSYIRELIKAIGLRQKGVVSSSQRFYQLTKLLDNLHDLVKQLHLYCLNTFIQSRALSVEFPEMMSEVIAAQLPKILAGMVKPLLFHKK
Experimental: The main experimental setting used is the following: HEK293T cells were transiently transfected, using calcium phosphate precipitation technology, with expression vectors pSG5hPR (which permits expression of human progesterone receptor(PR)), pFC31-luc (contains the luciferase gene under the control of the MMTV promoter, which is in turn activated by binding of a progestin to progesterone receptor) and pcbetagal (which permits expression of betagalactosidase), and cultured during 24 hours with increasing amounts of various compositions: • 1. […] Test of progesterone receptor […] activity: transfected cells were cultured with progesterone (1 nM) and increasing amounts of RU486 (a well-known progesterone receptor antagonist) or 3-methoxy-pregnenolone. With this setting, a compound with progesterone receptor antagonist activity competes with progesterone for the occupation of progesterone receptor and results in a progressive loss of transactivation activity when the amount of this compound is increased compared to progesterone.

[2] = target: T2, Muscarinic (Cholinergic) M2 (Homo sapiens, UniProt P08172); experiment: CNS receptor binding assay, M2; conditions: MAP4343 10 µM; [^3H] AF-DX 384; Human recombinant (CHO cells); read-out: % Inhibition of control specific binding
T2 construct: expressed in transfected cells; host or cells: CHO cells
T2 sequence (P08172 whole entry): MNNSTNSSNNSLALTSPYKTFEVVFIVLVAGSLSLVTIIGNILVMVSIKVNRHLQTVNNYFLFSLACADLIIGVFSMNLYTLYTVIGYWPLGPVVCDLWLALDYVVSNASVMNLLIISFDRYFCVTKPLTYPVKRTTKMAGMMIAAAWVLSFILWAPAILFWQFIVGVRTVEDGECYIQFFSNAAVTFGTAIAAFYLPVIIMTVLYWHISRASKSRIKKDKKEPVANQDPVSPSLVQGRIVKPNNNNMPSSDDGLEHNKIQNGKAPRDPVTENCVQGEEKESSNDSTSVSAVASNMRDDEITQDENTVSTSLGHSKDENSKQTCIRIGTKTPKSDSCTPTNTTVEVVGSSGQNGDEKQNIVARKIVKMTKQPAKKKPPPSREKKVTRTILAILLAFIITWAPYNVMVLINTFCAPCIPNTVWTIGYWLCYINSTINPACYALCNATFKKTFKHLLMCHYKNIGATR
Experimental: (§1) MAP4343 has been screened for in vitro affinity to 80 different CNS neurotransmitters receptors using various validated binding assays.
(§2) Table 4. In vitro affinity of MAP4343 (10 µM) for CNS neurotransmitter receptors associated with side effects and/or abuse liability. Data are the average of two individual assays for each receptor and are expressed as % inhibition of the control specific binding of the reference compound. Results showing an inhibition higher than 50% are considered to represent significant effects of the test compound.

Histaminergic H1 = Histaminergic H1 (Homo sapiens, UniProt P35367); experiment: CNS receptor binding assay, H1; conditions: MAP4343 10 µM; [^3H] pyrilamine; Human recombinant (HEK-293 cells); read-out: % Inhibition of control specific binding
Histaminergic H1, sequence (P35367 whole entry): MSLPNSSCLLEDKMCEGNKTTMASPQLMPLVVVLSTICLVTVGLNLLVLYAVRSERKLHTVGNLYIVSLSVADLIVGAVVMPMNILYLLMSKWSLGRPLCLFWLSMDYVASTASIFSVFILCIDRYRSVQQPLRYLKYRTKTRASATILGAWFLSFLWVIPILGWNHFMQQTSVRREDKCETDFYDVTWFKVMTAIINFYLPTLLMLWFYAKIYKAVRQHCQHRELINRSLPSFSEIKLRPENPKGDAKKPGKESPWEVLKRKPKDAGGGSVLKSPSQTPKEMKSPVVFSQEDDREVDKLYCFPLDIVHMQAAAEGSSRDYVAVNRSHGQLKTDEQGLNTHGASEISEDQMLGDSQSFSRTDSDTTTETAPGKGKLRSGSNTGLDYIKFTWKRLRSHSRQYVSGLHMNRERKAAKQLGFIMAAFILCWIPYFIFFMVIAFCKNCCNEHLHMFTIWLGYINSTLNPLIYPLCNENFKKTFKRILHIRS
Experimental: as §1, §2

Histaminergic H2 = Histaminergic H2 (Homo sapiens, UniProt P25021); experiment: CNS receptor binding assay, H2; conditions: MAP4343 10 µM; [^125I] APT; Human recombinant (CHO cells); read-out: % Inhibition of control specific binding
Histaminergic H2, sequence (P25021 whole entry): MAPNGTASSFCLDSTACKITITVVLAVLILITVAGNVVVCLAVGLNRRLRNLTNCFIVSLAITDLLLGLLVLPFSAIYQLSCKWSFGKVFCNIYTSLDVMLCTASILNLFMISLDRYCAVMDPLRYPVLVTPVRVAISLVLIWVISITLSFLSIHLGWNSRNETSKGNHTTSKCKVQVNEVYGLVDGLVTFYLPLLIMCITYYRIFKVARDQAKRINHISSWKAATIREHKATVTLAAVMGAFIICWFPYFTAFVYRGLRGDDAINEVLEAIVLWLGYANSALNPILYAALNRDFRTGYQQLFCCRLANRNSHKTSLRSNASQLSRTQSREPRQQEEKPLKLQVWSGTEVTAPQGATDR
Experimental: as §1, §2

[3] = target: Noradrenergic Transporter (Homo sapiens, UniProt P23975); experiment: CNS receptor binding assay, noradrenergic transporter; conditions: MAP4343 10 µM; [^3H] nisoxetine; Human recombinant (CHO cells); read-out: % Inhibition of control specific binding
Noradrenergic Transporter, sequence (P23975 whole entry): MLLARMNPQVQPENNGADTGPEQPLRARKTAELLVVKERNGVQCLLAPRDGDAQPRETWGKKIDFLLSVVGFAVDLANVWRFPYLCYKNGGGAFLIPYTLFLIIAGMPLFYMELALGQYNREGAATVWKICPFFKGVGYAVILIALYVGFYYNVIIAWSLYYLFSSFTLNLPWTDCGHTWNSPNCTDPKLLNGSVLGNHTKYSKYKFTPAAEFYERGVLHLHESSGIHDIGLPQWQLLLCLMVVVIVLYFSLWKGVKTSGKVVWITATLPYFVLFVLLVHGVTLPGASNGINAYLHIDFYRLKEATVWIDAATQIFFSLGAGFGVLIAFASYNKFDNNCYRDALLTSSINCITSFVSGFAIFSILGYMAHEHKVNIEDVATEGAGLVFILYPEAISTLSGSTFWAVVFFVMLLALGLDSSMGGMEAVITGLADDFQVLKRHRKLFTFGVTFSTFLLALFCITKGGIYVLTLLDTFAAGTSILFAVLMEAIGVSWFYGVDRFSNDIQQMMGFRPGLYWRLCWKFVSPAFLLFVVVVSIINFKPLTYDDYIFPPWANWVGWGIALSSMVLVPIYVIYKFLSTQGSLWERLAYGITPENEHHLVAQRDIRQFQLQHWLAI
Experimental: as §1, §2

Serotoninergic 5-HT2A = Serotoninergic 5-HT2A (Homo sapiens, UniProt P28223); experiment: CNS receptor binding assay, 5-HT2A; conditions: MAP4343 10 µM; [^3H] ketanserin; Human recombinant (HEK-293 cells); read-out: % Inhibition of control specific binding
Serotoninergic 5-HT2A, sequence (P28223 whole entry): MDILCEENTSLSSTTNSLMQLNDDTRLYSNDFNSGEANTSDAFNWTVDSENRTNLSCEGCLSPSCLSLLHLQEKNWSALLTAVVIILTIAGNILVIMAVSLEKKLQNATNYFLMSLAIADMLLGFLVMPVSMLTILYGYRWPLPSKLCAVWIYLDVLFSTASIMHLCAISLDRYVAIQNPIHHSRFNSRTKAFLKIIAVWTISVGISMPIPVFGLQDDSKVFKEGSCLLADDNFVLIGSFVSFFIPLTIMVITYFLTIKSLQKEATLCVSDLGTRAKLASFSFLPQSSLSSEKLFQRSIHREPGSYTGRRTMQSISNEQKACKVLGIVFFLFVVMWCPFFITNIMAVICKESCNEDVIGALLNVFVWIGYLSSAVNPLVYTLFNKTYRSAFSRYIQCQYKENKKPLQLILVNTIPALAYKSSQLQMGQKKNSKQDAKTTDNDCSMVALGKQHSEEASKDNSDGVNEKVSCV
Experimental: as §1, §2

Serotoninergic 5-HT6 = Serotoninergic 5-HT6 (Homo sapiens, UniProt P50406); experiment: CNS receptor binding assay, 5-HT6; conditions: MAP4343 10 µM; [^3H] LSD; Human recombinant (CHO cells); read-out: % Inhibition of control specific binding
Serotoninergic 5-HT6, sequence (P50406 whole entry): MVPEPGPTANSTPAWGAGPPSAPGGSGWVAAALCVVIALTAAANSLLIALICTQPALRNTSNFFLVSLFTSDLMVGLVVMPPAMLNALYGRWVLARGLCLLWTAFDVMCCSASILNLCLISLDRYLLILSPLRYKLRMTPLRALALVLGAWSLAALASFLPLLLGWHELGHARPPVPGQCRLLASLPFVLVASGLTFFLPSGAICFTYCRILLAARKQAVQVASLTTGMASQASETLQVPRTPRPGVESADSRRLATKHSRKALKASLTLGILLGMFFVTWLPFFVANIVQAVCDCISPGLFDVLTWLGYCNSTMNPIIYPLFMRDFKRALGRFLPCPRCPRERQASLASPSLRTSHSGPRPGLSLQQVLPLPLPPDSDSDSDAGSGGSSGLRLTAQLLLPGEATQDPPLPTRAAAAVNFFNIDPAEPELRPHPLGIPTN
Experimental: as §1, §2

Serotoninergic 5-HT7 = Serotoninergic 5-HT7 (Homo sapiens, UniProt P34969); experiment: CNS receptor binding assay, 5-HT7; conditions: MAP4343 10 µM; [^3H] LSD; Human recombinant (CHO cells); read-out: % Inhibition of control specific binding
Serotoninergic 5-HT7, sequence (P34969 whole entry): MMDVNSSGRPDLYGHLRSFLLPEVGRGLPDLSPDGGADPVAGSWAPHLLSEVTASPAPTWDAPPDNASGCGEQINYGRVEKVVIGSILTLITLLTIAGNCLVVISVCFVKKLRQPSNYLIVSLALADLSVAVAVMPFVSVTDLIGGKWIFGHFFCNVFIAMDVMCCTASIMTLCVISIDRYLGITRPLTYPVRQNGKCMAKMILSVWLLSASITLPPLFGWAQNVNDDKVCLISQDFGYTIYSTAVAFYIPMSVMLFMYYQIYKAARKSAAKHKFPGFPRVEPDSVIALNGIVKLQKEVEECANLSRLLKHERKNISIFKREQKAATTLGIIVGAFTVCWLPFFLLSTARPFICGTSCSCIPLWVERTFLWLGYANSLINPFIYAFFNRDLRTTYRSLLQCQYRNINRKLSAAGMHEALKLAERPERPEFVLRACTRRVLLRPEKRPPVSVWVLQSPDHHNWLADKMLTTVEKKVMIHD
Experimental: as §1, §2

Wistar Kyoto (WKY) rats = experiment: Elevated-plus maze (EPM), WKY rats; format: in vivo, rat; conditions: acute, MAP4343 10 mg/kg s.c., fluoxetine 10 mg/kg, ketamine 30 mg/kg i.p., Fig. 5D
Experimental: After a 6-day period of acclimatization, all experimental groups received daily successive subcutaneous (250 µl per rat) and intraperitoneal (1 ml/kg) injections. WI rats received injection of vehicle (sesame oil + saline) while WKY rats were randomly assigned to […], as follow: KWY rats receiving only vehicle (sesame oil + saline) and WKY rats treated with MAP4343 (10 mg/kg, s.c.; rats received in parallel i.p. injections of saline), fluoxetine (10 mg/kg i.p., rats received in parallel s.c. injections of sesame oil) or ketamine (30 mg/kg, i.p.; rats received in parallel s.c. injections of sesame oil) (see Figure 3).
After, a 6-day period of acclimatization, the acute phase of treatment started for 4 days during behavioral tests were performed (Figure 3). All animals were injected 1h30 before the starting of behavioral test.
We used the elevated-plus maze (EPM) as an assay of anxiety-related behavior in rodents (Walf and Frye, 2007). Rats were initially placed in the center of the plus-maze, consisting of two open arms (50 x 10 cm) and two closed arms (50 x 10 cm enclosed by 40 cm walls), in a 50 lux illuminated room and videotaped during 5 min using a computerized system (VideoTrack V2.5, ViewPoint, Lyon, France). The time spent in the open versus closed arms was blindly measured by two independent experimenters from the recorded video, and the open arm-index was calculated as follow: time in the open arms (sec) / [time in open arms (sec) + time in closed arms (sec)].

CO[C@H]1CC[C@@]2(C)C(=CC[C@H]3[C@@H]4CC[C@H](C(C)=O)[C@@]4(C)CC[C@@H]32)C1 (stereo in doubt) [MAP4343, 3β-methoxy-pregna-5-ene-20-one]
progesterone receptor antagonist activity [1]: weak progesterone receptor antagonist | inhibition at 10 µM [2]: 20% | inhibition at 10 µM (Histaminergic H1): 9% | inhibition at 10 µM (Histaminergic H2): -21% | inhibition at 10 µM [3]: 3% | inhibition at 10 µM (Serotoninergic 5-HT2A): 1% | inhibition at 10 µM (Serotoninergic 5-HT6): 12% | inhibition at 10 µM (Serotoninergic 5-HT7): -11% | open-arm (OA) index, change when compared to WKY receiving vehicle alone (Wistar Kyoto (WKY) rats): 165%

— EP3436024B1, “3-BETA-METHOXY-PREG FOR USE IN THE TREATMENT OF TREATMENT RESISTANT DEPRESSION” (Mapreg, priority 2016, dated 2017)
